Patent US20220257617A1, “COMPOSITIONS AND METHODS FOR KELOIDLESS HEALING” (priority 2017, published 2022)

Legend:
[1] = system: NIH 3T3 cells; experiment: Col1a1/Col3a1 mRNA expression in dermal fibroblasts (qRT-PCR); type: cell-based, mouse; details: for collagen transcription (Col1a1/Col3a1 mRNA): NIH 3T3 stimulated with 1 μM S1P for 24 hours in presence of 10 μM inhibitor
Experimental: Mouse dermal fibroblast NIH 3T3 cells were cultured in DMEM. To analyze the production of collagens, ascorbic acid 2-phosphate (Sigma-Aldrich) was added in culture medium to 0.2 mM of final concentration.
We performed sCA preparation as previously published (23). We mixed 4 μl of 1M CaCl2) with 2 μg of plasmid DNA in 1 mL of an inorganic solution (NaHCO3; 44 mM, NaH2PO4; 0.9 mM, CaCl2); 1.8 mM, pH 7.5), then incubated at 37° C. for 30 min. The solution was centrifuged at 12,000 rpm for 3 min, and the pellet was dissolved with DMEM. We sonicated the solution in a water bath for 10 min to generate sCA. Cells were cultured in 6 well plate for 24 hours, then incubated with sCA-DMEM solution for 6 hours. We changed medium into DMEM with 10% FBS and incubated for additional 48 hours, then collected for total RNA isolation.
Total RNA was extracted using TRIzol® Regent (Invitrogen). cDNA was then synthesized using High Capacity cDNA Reverse Transcription Kits (Applied Biosystems, Foster City, Calif.). qRT-PCR was performed using an CFX96 Real-Time System (Bio-Rad, Hercules, Calif.) with PowerUp SYBR Green master mix (Bio-Rad). GAPDH served as the internal control. Relative expression was calculated using the 2-ΔΔCt method with correction for different amplification efficiencies.

[2] = system: mouse excisional wound; experiment: Mouse excisional wound splinting model, wound area analysis; type: in vivo
Text: Mouse excisional wound splinting model were generated as previously published 1. Mice were anesthetized using isoflurane and removed dorsal hair. Two of 5 mm-diameter full-thickness skin punches were created symmetrically besides the midline. 12 mm diameter circle-shaped silicon lubber splints in which 6 mm diameter circles were punched in center were used for wound splinting. […] were fixed with instant-bonding adhesive and sutures around wounds. After application with any ointment, dressings were performed with Tegaderm (3M, Maplewood, Minn.). S1P was purchased from Sigma-Aldrich (Carlsbad, Calif.). 1 mM S1P in 4% bovine serum albumin was prepared with sonication, diluted 1000-fold for 1 μM ointment or 10-fold for 100 μM ointment with Aquaphor® and mixed well. We generated sCA with 100 ug plasmid DNA and dissolved the sCA pellet with 50 μl PBS. Then we mixed all of the solution into 200 μl of Aquaphor®. We used 250 μl ointment for 4 wounds of 2 mice. Digital photo images were analyzed using GIMP 2.8 software. The pixels of wound area were normalized by those of inside area of silicon splint. Then, the ratios devised by wound area at day 0 were calculated.

[3] = system: inflammatory cells in wound; experiment: Flow cytometry of cells separated from mouse wound tissues; type: in vivo; details: 1 uM S1P topical vs vehicle
Text: Mouse excisional wound splinting model were generated as previously published 1. Mice were anesthetized using isoflurane and removed dorsal hair. Two of 5 mm-diameter full-thickness skin punches were created symmetrically besides the midline. 12 mm diameter circle-shaped silicon lubber splints in which 6 mm diameter circles were punched in center were used for wound splinting. […] were fixed with instant-bonding adhesive and sutures around wounds. After application with any ointment, dressings were performed with Tegaderm (3M, Maplewood, Minn.). We performed cell separation from mouse wound tissues as previously published^4. We digested the tissues cut into small pieces in DMEM with 10% FBS, 1.2 mg/ml hyaluronidase (Sigma Aldrich), 2 mg/ml collagenase (Sigma Aldrich), and 0.2 mg/ml DNase I (Sigma Aldrich) at 37° C. for 90 min. Cell pellets were resuspended in PBS with 2% FBS, incubated with anti-CD16/32 antibody (Biolegend, San Diego, Calif.) for 5 min to block Fcγ receptors. For inflammatory cell recruitment analysis, we stained with phycoerythrin (PE)-conjugated anti-Gr-1, allophycocyanin (APC)-conjugated anti-CD3a, PE/CY7 conjugated anti-CD4, or fluorescein isothiocyanate (FITC)-conjugated anti-CD8a antibody (CiteAb, Bath, UK) at 4° C. for 20 min. […] Cells were analyzed with FACSDiva (BD, San Jose, Calif.).

[4] = system: wound tissue; experiment: Immunohistochemistry of wounds (F4/80, Ki67, CD34); type: in vivo, mouse; details: 1 uM S1P topical vs vehicle, day 5 after punch
Text: Mouse excisional wound splinting model were generated as previously published 1. Mice were anesthetized using isoflurane and removed dorsal hair. Two of 5 mm-diameter full-thickness skin punches were created symmetrically besides the midline. 12 mm diameter circle-shaped silicon lubber splints in which 6 mm diameter circles were punched in center were used for wound splinting. […] were fixed with instant-bonding adhesive and sutures around wounds. After application with any ointment, dressings were performed with Tegaderm (3M, Maplewood, Minn.). We performed H&E, Masson's trichrome staining on paraffin-embedded sections. We used primary antibodies against F4/80, Ki67 and CD34. Immunostaining was developed with VECTASTAIN Universal Elite ABC Kit (Vector, Burlingame, Calif.). We purchased all antibodies from Abcam (Cambridge, UK). We analyzed the results using ImageJ.

[5] = system: scar neovasculature; experiment: Neovasculature analysis in scars; type: in vivo, mouse; details: S1P treatment vs vehicle, Balb/c mice, at the point of epithelization
Text: We performed neovasculature analysis using standard approaches.

[6] = system: scar; experiment: Scar thickness analysis (Masson's trichrome); type: in vivo, mouse; details: 1 μM S1P topical vs vehicle, at the point of epithelization
Text: We performed H&E, Masson's trichrome staining on paraffin-embedded sections. We used primary antibodies against F4/80, Ki67 and CD34. Immunostaining was developed with VECTASTAIN Universal Elite ABC Kit (Vector, Burlingame, Calif.). We purchased all antibodies from Abcam (Cambridge, UK). We analyzed the results using ImageJ. We calculated scar thickness with Masson's trichrome stain images using ImageJ.

[7] = NIH 3T3 stimulated with exogenous S1P for 24 hours

Row | Compound | collagen transcription (Col1a1/Col3a1 mRNA) [1] | wound closure ([2]; 1 μM S1P topical treatment vs control vehicle) | wound closure ([2]; 100 μM S1P treatment, Balb/c mice) | wound closure ([2]; high concentration S1P (100 PM) vs vehicle, C57BL6/J mice) | recruitment of granulocytes (Gr-1 positive cells) ([3]; day 2 after punch) | percentage of T cells in wounds ([3]; day 5 after punch) | angiogenesis (CD34 immunohistochemistry) [4] | cell proliferation (Ki67) [4] | neovasculatures in scars [5] | scar thickness [6] | transcription of Col1a1 [1, 7] | transcription of Col3a1 [1, 7]
1 | Cc1nn(C)c2nc(NNC(=O)Nc3cc(Cl)nc(Cl)c3)cc(C(C)C)c12 [JTE013, reference compound] | increased |  |  |  |  |  |  |  |  |  |  | 
2 | CCCCCCCCCCCCC/C=C/[C@@H](O)[C@@H](N)COP(=O)(O)O [S1P, sphingosine-1-phosphate] |  | significantly promoted | significantly obstructed | no difference | does not influence | did not increase | promoting angiogenesis | no effect | confirmed the development of neovasculatures | statistically significant reduction in scar thickness were not obtained | inhibited | inhibited
3 | CCCCCCCCc1cccc(NC(=O)[C@H](N)COP(=O)(O)O)c1 [VPC23019, reference compound] | increased |  |  |  |  |  |  |  |  |  |  | 
